Assay results from patent US8563549B2, “Pyrimidine derivatives used as PI-3 kinase inhibitors” (Novartis AG, priority 2006, dated 2013).
Read-outs that look alike come from different tables or passages of the source.

Tests used:
[1] = system: A2780 ovarian cancer cells; test: Cellular proliferation, Cell Titer Glo (Biological Method 4); assay type: cell-based; settings: Homo sapiens, ovarian cancer cell line A2780
Experimental: In addition, many of the compounds of Table 1 were tested to determine their inhibitory activity in a cellular proliferation assay according to Biological Method 4.
The ability of the compounds of the invention to inhibit cellular proliferation were determined by using Cell Titer Glo, a commercially available assay from Promega Corporation. A2780 ovarian cancer cells were seeded in TC treated 96-well plates at a density of 1,000 per well in DMEM, 10% FBS, 1% Sodium Pyruvate, and 1% Penicillin Streptomycin for a minimum of 2 hrs prior to addition of compound. For each concentration of test compound, 2 μl (500×) aliquots of compound or 100% DMSO diluted in 500 μl of culture medium for 2× concentration then diluted 1× on the Cells. Cells were incubated for 72 hrs at 37° C., 5% CO2. After the 72 hour incubation, Cell Titer Glo reagent is added to determine number of viable cells remaining after exposure to the compound, and the EC50 value was calculated. The assay was performed according to the manufacturer's instruction (Promega Corporation, Madison, Wis. USA). Each experimental condition was performed in duplicate.

[2] = system: pSer473 Akt; test: pSer473 Akt assay to monitor PI3K pathway in A2780 cells (Biological Method 2); assay type: cell-based; settings: Homo sapiens, inhibition of Akt phosphorylation
Experimental: In this method, an assay for measuring the PI3K-mediated pSer473-Akt status after treatment with representative inhibitor compounds of the invention is described.
A2780 cells were cultured in DMEM supplemented with 10% FBS. L-glutamine, sodium pyruvate, and antibiotics. Cells were plated in the same medium at a density of 15,000 cells per well into 96 well tissue culture plates, with outside wells vacant, and allowed to adhere overnight.
Test compounds supplied in DMSO were diluted further into DMSO at 500 times the desired final concentrations before dilution into culture media to 2 times the final concentrations. Equal volumes of 2× compounds were added to the cells in 96 well plates and incubated at 37° C. for one hour. The media and compounds were then removed, the plates chilled and cells lysed in a lysis buffer (150 mM NaCl, 20 mM Tris pH 7.5, 1 mM EDTA, 1 mM EGTA, 1% Triton X-100) supplemented with phosphatase and protease inhibitors. After thorough mixing, lysates were transferred to both pSer473Akt and total Akt assay plates from Meso Scale Discovery (MSD), and incubated overnight with shaking at 4° C.
The assays were read on a SECTOR Imager 6000 instrument (Meso Scale Discovery). Ratios of the signal from pSer473Akt and total Akt assays were used to correct for any variability and the percent inhibition of pSer473Akt from the total signal seen in cells treated with compound versus DMSO alone was calculated and used to determine EC50 values for each compound.

[3] = molecular target: PI3 kinase alpha (Homo sapiens, UniProt P42336); test: PI3K ATP depletion assay (Biological Method 1, Assay 3); assay type: biochemical
Sequence of PI3 kinase alpha (P42336 whole entry): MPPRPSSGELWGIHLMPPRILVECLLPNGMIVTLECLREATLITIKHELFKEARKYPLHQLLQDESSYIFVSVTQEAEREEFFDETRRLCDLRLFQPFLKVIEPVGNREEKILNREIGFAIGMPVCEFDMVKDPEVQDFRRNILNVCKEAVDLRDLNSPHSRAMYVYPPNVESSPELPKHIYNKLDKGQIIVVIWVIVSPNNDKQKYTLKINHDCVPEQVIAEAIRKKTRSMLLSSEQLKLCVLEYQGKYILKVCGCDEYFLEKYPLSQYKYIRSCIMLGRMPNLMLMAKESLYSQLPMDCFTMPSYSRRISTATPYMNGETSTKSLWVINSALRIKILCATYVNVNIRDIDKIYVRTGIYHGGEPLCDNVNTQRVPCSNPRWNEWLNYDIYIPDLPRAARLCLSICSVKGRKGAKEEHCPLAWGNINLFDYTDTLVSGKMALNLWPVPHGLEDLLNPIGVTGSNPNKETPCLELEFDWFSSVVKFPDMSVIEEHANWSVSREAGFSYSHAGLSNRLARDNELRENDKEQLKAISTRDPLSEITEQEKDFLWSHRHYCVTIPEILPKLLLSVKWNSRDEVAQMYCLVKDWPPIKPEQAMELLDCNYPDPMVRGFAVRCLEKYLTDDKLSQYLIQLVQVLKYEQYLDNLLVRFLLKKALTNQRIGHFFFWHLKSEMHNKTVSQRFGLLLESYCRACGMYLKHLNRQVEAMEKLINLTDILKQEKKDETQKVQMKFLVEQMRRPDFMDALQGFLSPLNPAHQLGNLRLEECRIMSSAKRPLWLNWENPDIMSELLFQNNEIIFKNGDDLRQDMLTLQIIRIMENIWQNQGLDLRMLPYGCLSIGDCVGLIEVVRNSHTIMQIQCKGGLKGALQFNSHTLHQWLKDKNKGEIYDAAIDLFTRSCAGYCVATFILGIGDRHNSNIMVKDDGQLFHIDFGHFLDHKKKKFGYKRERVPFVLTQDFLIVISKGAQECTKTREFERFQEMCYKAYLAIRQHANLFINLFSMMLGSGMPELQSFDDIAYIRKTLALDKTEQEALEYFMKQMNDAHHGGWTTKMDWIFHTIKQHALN
Sequence of PI3 kinase alpha (P27986 whole entry partner): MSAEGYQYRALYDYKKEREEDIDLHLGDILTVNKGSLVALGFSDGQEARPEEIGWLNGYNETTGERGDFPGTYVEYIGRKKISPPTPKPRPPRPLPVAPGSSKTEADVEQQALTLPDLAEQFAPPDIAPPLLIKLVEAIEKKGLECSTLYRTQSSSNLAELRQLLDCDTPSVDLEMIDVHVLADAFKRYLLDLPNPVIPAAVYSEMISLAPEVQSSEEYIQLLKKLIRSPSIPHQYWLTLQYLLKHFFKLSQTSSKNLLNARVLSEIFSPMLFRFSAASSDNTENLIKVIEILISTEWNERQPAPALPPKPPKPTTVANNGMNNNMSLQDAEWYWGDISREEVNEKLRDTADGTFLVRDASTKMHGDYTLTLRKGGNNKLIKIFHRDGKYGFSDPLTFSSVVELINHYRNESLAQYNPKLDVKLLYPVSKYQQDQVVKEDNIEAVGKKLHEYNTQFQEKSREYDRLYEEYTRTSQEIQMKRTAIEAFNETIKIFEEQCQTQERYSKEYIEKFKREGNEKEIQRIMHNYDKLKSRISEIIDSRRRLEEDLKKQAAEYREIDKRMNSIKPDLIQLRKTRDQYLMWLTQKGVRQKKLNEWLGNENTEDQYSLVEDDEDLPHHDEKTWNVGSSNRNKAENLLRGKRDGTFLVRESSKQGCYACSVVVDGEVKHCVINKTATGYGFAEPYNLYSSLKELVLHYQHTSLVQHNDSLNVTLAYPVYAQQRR
Experimental: Assay 3: ATP Depletion Assay
Compounds to be tested are dissolved in DMSO and directly distributed into a black 384-well plate at 1.25 μL per well. To start the reaction, 25 μL of 10 nM PI3 kinase and 5 μg/mL 1-alpha-phosphatidylinositol (PI) are added into each well followed by 25 μL of 2 μM ATP. The reaction is performed until approx 50% of the ATP is depleted, and then stopped by the addition of 25 μL of KinaseGlo solution purchased from Promega. The stopped reaction is incubated for 5 minutes and the remaining ATP is then detected via luminescence.

SMILES | EC50 [1] | IC50 [3] | also measured
COCCNc1cc(-c2cnc(N)nc2)nc(N2CCOCC2)n1 [Compound 14] | < 10 µM |  | 
CC(C)(C)Nc1cc(-c2cnc(N)nc2)nc(N2CCOCC2)n1 [Compound 16] | < 10 µM |  | 
Nc1cc(C(F)(F)F)c(-c2cc(N3CCCCC3=O)nc(N3CCOCC3)n2)cn1 [Compound 17] | < 10 µM |  | 
CC(=O)N1CCC(Oc2cc(-c3cnc(N)cc3C(F)(F)F)nc(N3CCOCC3)n2)CC1 [Compound 19] | < 10 µM |  | 
CC(C)(C)OC(=O)N1CCC[C@H](Oc2cc(-c3cnc(N)cc3C(F)(F)F)nc(N3CCOCC3)n2)C1 [Compound 20] | < 10 µM |  | 
CC(=O)N1CCC[C@@H](Oc2cc(-c3cnc(N)nc3N)nc(N3CCOCC3)n2)C1 [Compound 29] | < 10 µM |  | 
CCN(CC)CCc1csc(Nc2cc(-c3cnc(N)nc3C(F)(F)F)nc(N3CCOCC3)n2)n1 [Compound 55] | < 1 µM | < 1 µM | EC50 [2]: < 1 µM
CS(=O)(=O)N1CCC[C@H](Oc2cc(-c3cnc(N)nc3N)nc(N3CCOCC3)n2)C1 [Compound 89] | < 1 µM | < 1 µM | EC50 [2]: < 1 µM
Nc1ncc(-c2cc(OC3CCN(C(=O)OC4CCCC4)CC3)nc(N3CCOCC3)n2)c(N)n1 [Compound 97] | < 10 µM |  | 
CC(=O)N1CCC(Oc2cc(-c3cnc(N)nc3N)nc(N3CCOCC3)n2)CC1 [Compound 99] | < 10 µM |  | 
CCN(CC)CCc1csc(Nc2cc(-c3cnc(N)nc3N)nc(N3CCOCC3)n2)n1 [Compound 133] | < 1 µM | < 1 µM | EC50 [2]: < 1 µM
Nc1ncc(-c2cc(OC3CCN(C(=O)OCc4ccccc4)CC3)nc(N3CCOCC3)n2)c(N)n1 [Compound 146] | < 1 µM | < 1 µM | EC50 [2]: < 1 µM
Nc1ncc(-c2cc(-c3cncc(O)c3)nc(N3CCOCC3)n2)cn1 [Compound 274] | < 10 µM |  | 
Nc1ncc(-c2cc(-c3cnc(N)nc3)nc(N3CCOCC3)n2)cn1 [Compound 279] | < 1 µM |  | 
Nc1cc(Cl)c(-c2cc(OC3CCOCC3)nc(N3CCOCC3)n2)cn1 [Compound 328] | < 10 µM |  | 
Nc1ncc(-c2cc(Nc3ccnc4c(C(F)(F)F)cccc34)nc(N3CCOCC3)n2)cn1 [Compound 408] |  |  | IC50 ([3]; Table 1, Biological Method 1): < 1 µM; EC50 ([1]; Biological Method 4): < 10 µM
CN(C)C(=O)c1cnc(N2CCOCC2)nc1-c1cnc(N)nc1 [Compound 422] |  |  | IC50 ([3]; Table 1, Biological Method 1): < 10 µM
Nc1ccc(-c2cc(NCc3ccncc3)nc(N3CCOCC3)n2)cn1 [Compound 443] |  |  | IC50 ([3]; Table 1, Biological Method 1): < 10 µM
Nc1ccc(-c2cc(NCc3ccccn3)nc(N3CCOCC3)n2)cn1 [Compound 444] |  |  | IC50 ([3]; Table 1, Biological Method 1): < 10 µM
Nc1ccc(-c2cc(NCc3cccnc3)nc(N3CCOCC3)n2)cn1 [Compound 445] |  |  | IC50 ([3]; Table 1, Biological Method 1): < 10 µM
CS(=O)(=O)Nc1cc(N)ncc1-c1cc(Nc2cnc3ccccc3c2)nc(N2CCOCC2)n1 [Compound 492] |  |  | IC50 ([3]; Table 1, Biological Method 1): < 10 µM
COc1ccc2cc(Nc3cc(-c4ccc(N)nc4)nc(N4CCOCC4)n3)cnc2c1 [Compound 494] |  |  | EC50 ([1]; Biological Method 4): < 10 µM
Nc1ccc(-c2cc(Nc3cnc4ccc(OC(F)(F)F)cc4c3)nc(N3CCOCC3)n2)cn1 [Compound 496] |  |  | IC50 ([3]; Table 1, Biological Method 1): < 10 µM
Nc1ccc(-c2cc(-c3ccc(N4CCN(CCO)CC4)nc3)nc(N3CCOCC3)n2)cn1 [Compound 499] |  |  | IC50 ([3]; Table 1, Biological Method 1): < 1 µM; EC50 ([1]; Biological Method 4): < 10 µM
CS(=O)(=O)Nc1ccc(-c2cc(-c3ccc(N)nc3)nc(N3CCOCC3)n2)cn1 [Compound 503] |  |  | IC50 ([3]; Table 1, Biological Method 1): < 1 µM; EC50 ([1]; Biological Method 4): < 10 µM
N#Cc1cnc(Nc2cc(-c3cnc(N)nc3C(F)(F)F)nc(N3CCOCC3)n2)s1 [Compound 545] |  |  | IC50 ([3]; Table 1, Biological Method 1): < 1 µM
Cc1c(Nc2nc(-c3ccccc3)cs2)nc(N2CCOCC2)nc1-c1cnc(N)cc1C(F)(F)F [Compound 555] |  |  | IC50 ([3]; Table 1, Biological Method 1): < 10 µM

Further lines, with some results ahead:

EC50 [1] | IC50 [3] | SMILES | also measured
< 10 µM |  | CCN(CC)CCc1csc(Nc2cc(-c3cnc(N)cc3C(F)(F)F)nc(N3CCOCC3)n2)n1 [Compound 13] | 
< 10 µM |  | Nc1cc(C(F)(F)F)c(-c2cc(N3CCN(c4ccccc4)C3=O)nc(N3CCOCC3)n2)cn1 [Compound 18] | 
< 1 µM | < 1 µM | Cc1c(Nc2ncc(-c3ccccc3)s2)nc(N2CCOCC2)nc1-c1cnc(N)nc1 [Compound 61] | EC50 [2]: < 1 µM
< 10 µM |  | CS(=O)(=O)c1cccc(-c2cc(-c3cnc(N)cc3C#N)nc(N3CCOCC3)n2)c1 [Compound 92] | 
< 10 µM |  | CC(C)N1CCC(Oc2ccc(Nc3cc(-c4cnc(N)cc4C(F)(F)F)nc(N4CCOCC4)n3)cn2)C1 (centres unmarked) [Compound 93] | 
< 10 µM |  | CS(=O)(=O)c1cccc(-c2cc(-c3cnc(N)cc3C(F)(F)F)nc(N3CCOCC3)n2)c1 [Compound 95] | 
< 10 µM | < 1 µM | CC(=O)Nc1ncc(-c2cc(-c3cnc(N)cc3C(F)(F)F)nc(N3CCOCC3)n2)s1 [Compound 126] | EC50 [2]: < 1 µM
< 10 µM | < 1 µM | COc1ccc(Nc2cc(-c3cnc(N)nc3C(F)(F)F)nc(N3CCOCC3)n2)cn1 [Compound 151] | EC50 [2]: < 1 µM
< 1 µM | < 1 µM | Nc1ccc(-c2cc(-c3cc4ccccc4nc3NCCN3CCCC3)nc(N3CCOCC3)n2)cn1 [Compound 182] | EC50 [2]: < 1 µM
< 10 µM | < 1 µM | CN(C)CCOc1cncc(-c2cc(-c3cnc(N)cc3C(F)(F)F)nc(N3CCOCC3)n2)c1 [Compound 203] | EC50 [2]: < 1 µM
< 10 µM |  | COc1cncc(-c2cc(-c3ccc(N)nc3)nc(N3CCOCC3)n2)c1 [Compound 275] | 
< 1 µM |  | Nc1ncc(-c2cc(-c3ccc(F)nc3)nc(N3CCOCC3)n2)cn1 [Compound 278] | 
< 10 µM | < 1 µM | Nc1cc(C(F)(F)F)c(-c2cc(-c3cccnc3NCCO)nc(N3CCOCC3)n2)cn1 [Compound 285] | 
< 25 µM | < 10 µM | N#Cc1cccnc1Nc1cc(-c2ccc(N)nc2)nc(N2CCOCC2)n1 [Compound 364] | 
< 10 µM | < 1 µM | Cn1c(Nc2cc(-c3cnc(N)nc3)nc(N3CCOCC3)n2)nc2ccccc21 [Compound 394] | 
< 10 µM | < 1 µM | Nc1ncc(-c2cc(N[C@H]3CCC[C@@H]3OCc3ccccc3)nc(N3CCOCC3)n2)cn1 [Compound 396] | 
